Laboratory results published in patent US20220073496A1, “NOVEL QUINOLINE DERIVATIVE INHIBITOR” (Nanjing Transthera Biosciences Co., Ltd., priority 2018, published 2022).

Columns and labels:
[1] = target: T1, Mer (h) (Homo sapiens, UniProt Q12866); assay: Enzymatic activity test, Mer (h); format: biochemical; settings: 10 μM [γ-33P]-ATP, 40 minutes, room temperature
T1 construct: purchased
T1 sequence (Q12866 21-999): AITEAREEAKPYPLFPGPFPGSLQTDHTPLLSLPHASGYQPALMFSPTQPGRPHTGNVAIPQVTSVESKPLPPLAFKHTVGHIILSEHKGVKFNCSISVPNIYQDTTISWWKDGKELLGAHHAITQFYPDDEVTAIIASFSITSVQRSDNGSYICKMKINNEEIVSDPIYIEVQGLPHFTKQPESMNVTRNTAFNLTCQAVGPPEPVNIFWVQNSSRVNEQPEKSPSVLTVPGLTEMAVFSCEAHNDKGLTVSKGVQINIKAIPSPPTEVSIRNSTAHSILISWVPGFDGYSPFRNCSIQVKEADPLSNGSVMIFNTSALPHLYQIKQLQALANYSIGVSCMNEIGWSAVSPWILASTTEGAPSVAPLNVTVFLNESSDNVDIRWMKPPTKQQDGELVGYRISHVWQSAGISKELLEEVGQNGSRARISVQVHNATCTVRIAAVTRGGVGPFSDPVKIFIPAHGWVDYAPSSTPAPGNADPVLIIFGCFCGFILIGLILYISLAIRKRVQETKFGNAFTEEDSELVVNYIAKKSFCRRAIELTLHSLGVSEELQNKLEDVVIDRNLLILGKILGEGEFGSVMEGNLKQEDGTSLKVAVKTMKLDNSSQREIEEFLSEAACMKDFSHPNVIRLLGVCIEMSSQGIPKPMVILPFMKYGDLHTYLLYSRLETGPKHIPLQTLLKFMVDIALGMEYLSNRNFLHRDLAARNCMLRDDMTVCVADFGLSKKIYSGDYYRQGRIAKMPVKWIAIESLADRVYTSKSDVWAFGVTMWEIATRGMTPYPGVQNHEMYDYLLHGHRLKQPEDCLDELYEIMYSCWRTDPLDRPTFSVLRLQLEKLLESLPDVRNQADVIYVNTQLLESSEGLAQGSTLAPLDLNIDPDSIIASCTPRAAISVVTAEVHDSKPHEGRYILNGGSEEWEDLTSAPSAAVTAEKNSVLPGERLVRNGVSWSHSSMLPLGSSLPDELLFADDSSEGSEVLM
Protocol: (§1) Assay 3: Enzymatic Activity Test of the Compounds of the Present Invention
(§2) Test substances: the compounds of the present invention, wherein the structures and preparations thereof were as described above.
(§3) (1) Preparation of the Compound Stock Solution
(§4) The compound was dissolved in 100% DMSO to prepare a stock solution with a maximum concentration of 500 μM.
(§5) (2) Preparation of the Compound Working Solution
(§6) The compound stock solution was diluted to final concentrations of 500, 150, 50, 15, 5, 1.5, 0.5, 0.15 and 0.05 μM to become the compound working solutions (50×).
(§7) (3) Preparation of Different Enzyme Reaction Solutions
The Mer (h) enzyme was dissolved in 8 mM MOPS (pH 7.0), 0.2 mM EDTA, 30 mM NaCl, and 250 μM GGMEDIYFEFIVIGGKKK to prepare an enzyme solution having a final concentration of 3.1 nM. The enzymatic reaction was activated by using 10 mM magnesium acetate and 10 μM [γ-^33P]-ATP to form an Mg/ATP mixed solution.
(§8) In a 384-well plate, the compound working solution was added to final concentrations of 10000, 3000, 1000, 300, 100, 30, 10, 3, and 1 nM. Then different enzyme reaction solutions prepared according to the above conditions were added. The incubation was carried out for 40 minutes at room temperature. The test was terminated by the addition of a 0.5% phosphoric acid solution. 10 μL of the reaction solution was taken and dropped to the P30 filter paper. The filter paper was washed 4 times with 0.425% phosphoric acid solution and once with methanol, and then placed on a scintillation counter. The […] IC50 values were calculated using GraphPad 5.0 software.

[2] = target: T2, Axl (h) (Homo sapiens, UniProt P30530); assay: Enzymatic activity test, Axl (h); format: biochemical; settings: 10 μM [γ-33P]-ATP, 40 minutes, room temperature
T2 construct: purchased
T2 sequence (P30530 26-894): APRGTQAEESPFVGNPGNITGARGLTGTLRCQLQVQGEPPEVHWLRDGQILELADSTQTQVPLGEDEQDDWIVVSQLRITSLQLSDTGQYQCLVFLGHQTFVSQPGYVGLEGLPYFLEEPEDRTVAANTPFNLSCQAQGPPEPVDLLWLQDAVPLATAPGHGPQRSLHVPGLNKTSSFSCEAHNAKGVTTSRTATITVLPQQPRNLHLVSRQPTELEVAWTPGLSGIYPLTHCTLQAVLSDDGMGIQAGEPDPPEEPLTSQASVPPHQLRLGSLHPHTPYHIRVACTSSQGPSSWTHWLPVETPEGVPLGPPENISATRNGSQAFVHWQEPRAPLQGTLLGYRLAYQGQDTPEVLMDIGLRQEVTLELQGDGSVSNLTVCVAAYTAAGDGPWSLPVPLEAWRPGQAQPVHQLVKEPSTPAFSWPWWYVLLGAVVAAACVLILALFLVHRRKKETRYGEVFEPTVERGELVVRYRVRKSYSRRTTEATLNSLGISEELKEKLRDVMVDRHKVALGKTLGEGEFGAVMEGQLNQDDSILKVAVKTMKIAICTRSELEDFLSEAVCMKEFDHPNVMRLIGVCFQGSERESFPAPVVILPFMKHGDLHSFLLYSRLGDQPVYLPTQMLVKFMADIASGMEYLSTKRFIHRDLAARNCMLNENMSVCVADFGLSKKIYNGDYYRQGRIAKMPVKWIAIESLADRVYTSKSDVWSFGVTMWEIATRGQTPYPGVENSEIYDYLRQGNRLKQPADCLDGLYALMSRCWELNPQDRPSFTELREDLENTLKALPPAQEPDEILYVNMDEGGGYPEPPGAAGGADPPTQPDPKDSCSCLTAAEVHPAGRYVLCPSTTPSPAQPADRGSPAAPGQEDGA
Protocol: as §1, §2, §3, §4, §5, §6, §7
The Axl (h) enzyme was dissolved in 8 mM MOPS (pH 7.0), 0.2 mM EDTA, and 250 μM KKSRGDYMTMQIG to prepare an enzyme solution having a final concentration of 1.7 nM. The enzymatic reaction was activated by using 10 mM magnesium acetate and 10 μM [γ-^33P]-ATP to form an Mg/ATP mixed solution.
as §8

Structure (SMILES) | IC50 [1] [nM] | IC50 [2] [nM]
COc1cc2nccc(Oc3ncc(NC(=O)c4cn(C(C)C)nc(-c5ccc(F)cc5)c4=O)cn3)c2cc1OC [Compound 40, N-(2-((6,7-dimethoxyquinolin-4-yl)oxy)pyrimidine-5-yl)-6-(4-fluorophenyl)-2-isopropyl-5-oxo-2,5-dihydropyridazine-4-carboxamide] | 12 | 4
COc1cc2nccc(Oc3cnc(NC(=O)c4cn(C(C)C)nc(-c5ccc(F)cc5)c4=O)nc3)c2cc1OC [Compound 39, N-(5-((6,7-dimethoxyquinolin-4-yl)oxy)pyrimidine-2-yl)-6-(4-fluorophenyl)-2-isopropyl-5-oxo-2,5-dihydropyridazine-4-carboxamide] | 3 | 4
COc1cc2nccc(Oc3ccc(NC(=O)c4cn(C(C)C)nc(-c5ccc(F)cc5)c4=O)nc3)c2cc1OC [Compound 41, N-(5-((6,7-dimethoxyquinolin-4-yl)oxy)pyridin-2-yl)-6-(4-fluorophenyl)-2-isopropyl-5-oxo-2,5-dihydropyridazine-4-carboxamide] | 2 | 12
COc1cc2nccc(Oc3ccc(NC(=O)c4nn(C(C)C)cc(-c5ccc(F)cc5)c4=O)nc3)c2cc1OC [Compound 15, N-(5-((6,7-dimethoxyquinolin-4-yl)oxy)pyridin-2-yl)-5-(4-fluorophenyl)-1-isopropyl-4-oxo-1,4-dihydropyridazine-3-carboxamide] | < 1 | 11
COc1cc2nccc(Oc3cnc(NC(=O)c4cn(C(C)C)cc(-c5ccc(F)cc5)c4=O)nc3)c2cc1OC [Compound 20, N-(5-((6,7-dimethoxyquinolin-4-y)oxy)pyrimidine-2-yl)-5-(4-fluorophenyl)-1-isopropyl-4-oxo-1,4-dihydropyridin-3-carboxamide] | 3 | 17
COc1cc2nccc(Oc3ncc(NC(=O)c4nn(C(C)C)cc(-c5ccc(F)cc5)c4=O)cn3)c2cc1OC [Compound 34, N-(2-((6,7-dimethoxyquinolin-4-yl)oxy)pyrimidine-5-yl)-5-para-fluorophenyl-1-isopropyl-4-oxo-1,4-dihydropyridazine-3-carboxamide] | 2 | 5
COc1cc2nccc(Oc3ccc(NC(=O)c4nn(C(C)C)cc(-c5ccc(F)cc5)c4=O)cn3)c2cc1OC [Compound 29, N-(6-((6,7-dimethoxyquinolin-4-yl)oxy)pyridin-3-yl)-1-isopropyl-4-oxo-5-para-fluorophenyl-1,4-dihydropyridazine-3-carboxamide] | 1 | 5
COc1cc2nccc(Oc3ccc(NC(=O)c4cn(C5CC5)cc(-c5ccc(F)cc5)c4=O)nc3)c2cc1OC [Compound 30, N-(5-((6,7-dimethoxyquinolin-4-yl)oxy)pyridin-2-yl)-1-cyclopropyl-4-oxo-5-para-fluorophenyl-1,4-hydropyridin-3-carboxamide] | < 1 | 7
COc1cc2nccc(Oc3ccc(NC(=O)c4cn(C(C)C)nc(-c5ccc(F)cc5)c4=O)cn3)c2cc1OC [Compound 38, N-(6-((6,7-dimethoxyquinolin-4-yl)oxy)pyridin-3-yl)-6-para-fluorophenyl-2-isopropyl-5-oxo-2,5-dihydropyridazine-4-carboxamide] | 3 | 3
COc1cc2nccc(Oc3ccc(NC(=O)c4cn(C(C)C)cc(-c5ccc(F)cc5)c4=O)nc3)c2cc1OC [Compound 14, N-(5-((6,7-dimethoxyquinolin-4-yl)oxy)pyridin-2-yl)-5-(4-fluorophenyl)-1-isopropyl-4-oxo-1,4-dihydropyridin-3-carboxamide] | 2 | 8
COc1cc2nccc(Oc3ccc(NC(=O)c4nn(C5CC5)cc(-c5ccc(F)cc5)c4=O)cn3)c2cc1OC [Compound 36] | < 1 | 3
COc1cc2nccc(Oc3cnc(NC(=O)c4nn(C(C)C)cc(-c5ccc(F)cc5)c4=O)nc3)c2cc1OC [Compound 16, N-(5-((6,7-dimethoxyquinolin-4-yl)oxy)pyrimidine-2-yl)-5-(4-fluorophenyl)-1-isopropyl-4-oxo-1,4-dihydropyridazine-3-carboxamide] | 2 | 13
COc1cc2nccc(Oc3ncc(NC(=O)c4nn(C5CC5)cc(-c5ccc(F)cc5)c4=O)cn3)c2cc1OC [Compound 37, 1-cyclopropyl-N-(2-((6,7-dimethoxyquinolin-4-yl)oxy)pyrimidine-5-yl)-5-para-fluorophenyl-4-oxo-1,4-dihydropyridazine-3-carboxamide] | < 1 | 2
COc1cc2nccc(Oc3cnc(NC(=O)c4cn(C5CC5)cc(-c5ccc(F)cc5)c4=O)nc3)c2cc1OC [Compound 32, 1-cyclopropyl-N-(5-((6,7-dimethoxyquinolin-4-yl)oxy)pyrimidine-2-yl)-5-(4-fluorophenyl)-4-oxo-1,4-dihydropyridin-3-carboxamide] | 2 | 5
COc1cc2nccc(Oc3ccc(NC(=O)c4cn(C(C)C)cc(-c5ccc(C)cc5)c4=O)nc3)c2cc1OC [Compound 1, N-(5-((6,7-dimethoxyquinolin-4-yl)oxy)pyridin-2-yl)-1-isopropyl-4-oxo-5-p-tolyl-1,4-dihydropyridin-3-carboxamide] | 2 | 17
COc1cc2nccc(Oc3cnc(NC(=O)c4nn(C5CC5)cc(-c5ccc(F)cc5)c4=O)nc3)c2cc1OC [Compound 33] | < 1 | 2
COc1cc2nccc(Oc3ccc(NC(=O)c4nn(C5CC5)cc(-c5ccc(F)cc5)c4=O)nc3)c2cc1OC [Compound 31] | < 1 | 4
